From patent US11718622B2, “Heterocyclic adenosine receptor antagonists” (Exelixis, Inc., priority 2020, dated 2023)
pIC50: −log10 of the molar value.

Experiments:
[1] = target: Adenosine A2B (ADORA2B) receptor (Homo sapiens (Human), UniProt P29275); assay: ADORA2B Receptor Binding Assay; conditions: radioligand binding, membrane stock
Experimental: ADORA2B Receptor Binding Assay
100 μL of Adenosine A2B membrane stock was dispensed into individual wells of an assay plate. 1 μL of each compound (test compounds, high control compound, low control compound) was then transferred into individual wells, followed by 100 μL of radio-labeled ligand. Plates were then sealed, and incubated at room temperature for 1 hour. Unifilter-96 GF/C filter plates were pre-soaked with 50 μL of 0.5% BSA per well for at least 30 min at room temperature. When binding assays were completed, reaction mixtures were filtered through GF/C plates using a Perkin Elmer Filtermate Harvester, and then each plate was washed 4× with cold wash buffer. Filter plates were then dried for 1 hour at 50° C. After drying, the bottom of the filter plate wells was sealed using Perkin Elmer Unifilter-96 backing seal tape. 50 μL of Perkin Elmer Microscint 20 cocktail was then added, and the top of the filter plate was then sealed using Perkin Elmer TopSeal-A sealing film. ^3H trapped on the filter was counted using a Perkin Elmer MicroBeta2 Reader. Data analysis was performed using GraphPad Prism 5 software, and the “Inhibition[% Control]” was calculated using the following equation: % Inh=(1−Background subtracted Assay value/Background subtracted HC value)*100.

[2] = target: Adenosine A2a (ADORA2A) receptor (Homo sapiens (Human), UniProt P29274); assay: ADORA2A Receptor Binding Assay; conditions: radioligand binding, membrane stock
Adenosine A2a (ADORA2A) receptor, sequence (P29274 whole entry): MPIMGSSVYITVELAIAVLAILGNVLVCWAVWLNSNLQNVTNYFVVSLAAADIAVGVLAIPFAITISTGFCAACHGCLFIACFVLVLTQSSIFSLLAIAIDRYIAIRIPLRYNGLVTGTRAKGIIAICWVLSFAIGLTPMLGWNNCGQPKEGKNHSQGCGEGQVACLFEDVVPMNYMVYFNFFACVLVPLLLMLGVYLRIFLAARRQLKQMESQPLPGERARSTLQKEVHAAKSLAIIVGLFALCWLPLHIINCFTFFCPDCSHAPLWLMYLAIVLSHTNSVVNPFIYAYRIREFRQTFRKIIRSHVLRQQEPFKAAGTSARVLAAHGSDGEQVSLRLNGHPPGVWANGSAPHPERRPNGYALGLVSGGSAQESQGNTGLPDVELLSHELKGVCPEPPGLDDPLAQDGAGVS
Experimental: ADORA1A and ADORA2A Receptor Binding Assay
2 μL of each compound (test compounds, high control compound, low control compound) was transferred into individual wells of an assay plate. Also to each individual well, 98 μL of Adenosine A1a membrane stock (for ADORA1A Receptor Binding Assay) or Adenosine A2a membrane stock (for ADORA2A Receptor Binding Assay) was dispensed, followed by 100 μL of radio-labeled ligand. Plates were then sealed, and incubated at room temperature for 1 hour (for ADORA1A Receptor Binding Assay) or 2 hours (for ADORA2A Receptor Binding Assay). Unifilter-96 GF/C filter plates were pre-soaked with 50 μL of 0.3% PEI per well for at least 30 min at room temperature. When binding assays were completed, reaction mixtures were filtered through GF/C plates using a Perkin Elmer Filtermate Harvester, and then each plate was washed 4× with cold wash buffer. Filter plates were then dried for 1 hour at 50° C. After drying, the bottom of the filter plate wells was sealed using Perkin Elmer Unifilter-96 backing seal tape. 50 μL of Perkin Elmer Microscint 20 cocktail was then added, and the top of the filter plate was then sealed using Perkin Elmer TopSeal-A sealing film. ^3H trapped on the filter was counted using a Perkin Elmer MicroBeta2 Reader. Data analysis was performed using GraphPad Prism 5 software, and the “Inhibition [% Control]” was calculated using the following equation: % Inh=(1−Background subtracted Assay value/Background subtracted HC value)*100.

Adenosine A2B (ADORA2B) receptor, sequence (P29275 whole entry): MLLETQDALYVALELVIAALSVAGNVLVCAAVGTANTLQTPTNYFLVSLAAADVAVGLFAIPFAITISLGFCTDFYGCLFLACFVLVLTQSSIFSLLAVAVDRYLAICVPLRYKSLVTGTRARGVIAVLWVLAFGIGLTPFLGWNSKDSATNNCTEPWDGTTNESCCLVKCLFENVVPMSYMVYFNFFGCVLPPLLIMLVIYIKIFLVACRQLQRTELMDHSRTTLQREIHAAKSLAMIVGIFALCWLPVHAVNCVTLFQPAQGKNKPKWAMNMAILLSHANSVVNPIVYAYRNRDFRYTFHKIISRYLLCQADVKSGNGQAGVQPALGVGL

Structure (SMILES) | pIC50 [1] | pIC50 [2]
Cc1nc2cc(NC(=O)C(F)F)nc(-c3ccco3)n2n1 [Compound 144, 2,2-difluoro-N-[5-(furan-2-yl)-2-methyl-[1,2,4]triazolo[1,5-c]pyrimidin-7-yl]acetamide] | > 8.00 | > 8.00
O=C(Nc1cc2nc(C3CNC3)nn2c(-c2ccco2)n1)C1CC1 [Compound 123, N-[2-(azetidin-3-yl)-5-(furan-2-yl)-[1,2,4]triazolo[1,5-c]pyrimidin-7-yl]cyclopropanecarboxamide] | < 6.00 | 7.00 to 8.00
COc1ccc(Cc2nc3cc(NC(=O)C4CC4)nc(-c4ccc(C)o4)n3n2)cc1 [Compound 4] | > 8.00 | > 8.00
Cc1nc2c(-c3ccc(C)o3)nc(NC(=O)C3CC3)cn2n1 [Compound 169, N-[2-methyl-8-(5-methlfuran-2-yl)-[1,2,4]triazolo[1,5-a]pyrazin-6-yl]cyclopropanecarboxamide] | > 8.00 | > 8.00
Cc1cn2c(Cl)c(N)nc(-c3ccccc3)c2n1 [Compound 201, 5-chloro-2-methyl-8-phenylimidazo[1,2-a]pyrazin-6-amine] | 6.00 to 7.00 | 7.00 to 8.00
Cc1nc2cc(NC(=O)OC(C)(C)C)nc(-c3ccc(S(C)(=O)=O)cc3)n2n1 [Compound 100, tert-butyl N-[2-methyl-5-(4-methylsulfonylphenyl)-[1,2,4]triazolo[1,5-c]pyrimidin-7-yl]carbamate] | < 6.00 | < 6.00
CCOC(=O)c1cn2cc(NC(=O)C3CC3)nc(-c3ccc(C)o3)c2n1 [Compound 193, ethyl 6-(cyclopropanecarbonylamino)-8-(5-methylfuran-2-yl)imidazo[1,2-a]pyrazine-2-carboxylate] |  | 7.00 to 8.00
Cc1ccc(-c2nc(NC(=O)C3CC3)cn3cc(C(=O)O)nc23)o1 [Compound 194, 6-(cyclopropanecarbonylamino)-8-(5-methylfuran-2-yl)imidazo[1,2-a]pyrazine-2-carboxylic acid] |  | < 6.00

Other lines, results leading:

pIC50 [1] | pIC50 [2] | Structure (SMILES)
< 6.00 | < 6.00 | Cc1ccc(-c2nc(N)cn3c(C)cnc23)o1 [Compound 198, 3-methyl-8-(5-methylfuran-2-yl)imidazo[1,2-a]pyrazin-6-amine]
7.00 to 8.00 | > 8.00 | Cc1nc2cc(NC(=O)C3CC3)nc(-c3ccc(C(F)(F)F)o3)n2n1 [Compound 69, N-[2-methyl-5-[5-(trifluoromethyl)furan-2-yl]-[1,2,4]triazolo[1,5-c]pyrimidin-7-yl]cyclopropanecarboxamide]
> 8.00 | > 8.00 | Cc1nc2c3cc(C(C)(C)O)[nH]c3nc(-c3ccc(C)o3)n2n1 [Compound 134, 2-[4-methyl-7-(5-methylfuran-2-yl)-3,5,6,8,10-pentazatricyclo[7.3.0.0^2,6]dodeca-1(9),2,4,7,11-pentaen-11-yl]propan-2-ol]
> 8.00 | > 8.00 | Cc1nc2c(Cl)c(N)nc(-c3ccc(C)o3)n2n1 [Compound 11, 8-chloro-2-methyl-5-(5-methylfuran-2-yl)-[1,2,4]triazolo[1,5-c]pyrimidin-7-amine]
 | 7.00 to 8.00 | Cc1nc2c(Br)c(NC(=O)C3CC3)nc(-c3ccco3)n2n1 [Compound 31, N-[8-bromo-5-(furan-2-yl)-2-methyl-[1,2,4]triazolo[1,5-c]pyrimidin-7-yl]cyclopropanecarboxamide]
 | > 8.00 | Cc1nc2cc(NC(=O)[C@H]3CCCN3)nc(-c3ccc(C)o3)n2n1 [Compound 17, (2R)-N-[2-methyl-5-(5-methylfuran-2-yl)-[1,2,4]triazolo[1,5-c]pyrimidin-7-yl]pyrrolidine-2-carboxamide]
 | 7.00 to 8.00 | Cc1nc2cc(NC(=O)[C@@H]3CCCN3)nc(-c3ccc(C)o3)n2n1 [Compound 9, (2S)-N-[2-methyl-5-(5-methylfuran-2-yl)-[1,2,4]triazolo[1,5-c]pyrimidin-7-yl]pyrrolidine-2-carboxamide]
 | 6.00 to 7.00 | Cc1ccc(-c2nc(N)cn3ccnc23)o1 [Compound 191, 8-(5-methylfuran-2-yl)imidazo[1,2-a]pyrazin-6-amine]
